{
  "source": "patent US20260262643A1",
  "about": "“HERBICIDAL BENZOXAZINES” (FMC CORPORATION, priority 2022, published 2026)",
  "key": {"green foxtail [1]": {"test_system": "green foxtail", "experiment": "Test C postemergence", "format": "in vivo, Setaria viridis", "details": "10 days", "procedure,_shortened": "(§1)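 Visual injury ratings on a 0–100 scale (100 = complete control) were made against untreated controls 10 days after treatment in the greenhouse. Compounds, formulated with surfactant in non-phytotoxic solvent, were sprayed on soil preemergence or onto one- to two-leaf plants 2–10 cm tall postemergence.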"}, "wheat [2]": {"test_system": "wheat", "experiment": "Test C postemergence", "format": "in vivo, Triticum aestivum", "details": "10 days", "procedure,_shortened": "as §1"}, "corn [3]": {"test_system": "corn", "experiment": "Test C postemergence", "format": "in vivo, Zea mays", "details": "Zea mays, post-emergence, 240 h, 10 days", "procedure,_shortened": "as §1"}, "pigweed, palmer [4]": {"test_system": "pigweed, palmer", "experiment": "Test C preemergence", "format": "in vivo, Amaranthus palmeri", "details": "0 to 100 scale (0 no effect, 100 complete control)", "procedure,_shortened": "as §1"}, "barnyardgrass [5]": {"test_system": "barnyardgrass", "experiment": "Test C preemergence", "format": "in vivo, Echinochloa crusgalli", "details": "0 to 100 scale (0 no effect, 100 complete control)", "procedure,_shortened": "as §1"}, "ryegrass, Italian [6]": {"test_system": "ryegrass, Italian", "experiment": "Test C preemergence", "format": "in vivo, Lolium multiflorum", "details": "0 to 100 scale (0 no effect, 100 complete control)", "procedure,_shortened": "as §1"}, "ducksalad": {"test_system": "ducksalad", "experiment": "Test D flooded paddy test", "format": "in vivo, Heteranthera limosa", "details": "250 g ai/ha, applied to paddy water, visual rating after 13 to 14 days, scale 0 to 100 (0 no effect, 100 complete control)", "procedure,_shortened": "(§2)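 Rating scale 0–100 (0 no effect, 100 complete control), visual, versus controls. Readout at 13–14 days after in-water application to 2-leaf plants in pots flooded 3 cm deep.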"}, "blackgrass [7]": {"test_system": "blackgrass", "experiment": "Test C preemergence", "format": "in vivo, Alopecurus myosuroides", "details": "0 to 100 scale (0 no effect, 100 complete control)", "procedure,_shortened": "as §1"}, "oat, wild [8]": {"test_system": "oat, wild", "experiment": "Test C postemergence", "format": "in vivo, Avena fatua", "details": "10 days", "procedure,_shortened": "as §1"}, "pigweed, palmer [9]": {"test_system": "pigweed, palmer", "experiment": "Test C postemergence", "format": "in vivo, Amaranthus palmeri", "details": "10 days", "procedure,_shortened": "as §1"}, "blackgrass [10]": {"test_system": "blackgrass", "experiment": "Test C postemergence", "format": "in vivo, Alopecurus myosuroides", "details": "Alopecurus myosuroides, post-emergence, 240 h, 10 days, read-out: Plant response rating, Blackgrass", "procedure,_shortened": "as §1"}, "galium": {"test_system": "galium", "experiment": "Test C postemergence", "format": "in vivo, Galium aparine", "details": "10 days", "procedure,_shortened": "as §1"}, "sedge, umbrella": {"test_system": "sedge, umbrella", "experiment": "Test D flooded paddy test", "format": "in vivo, Cyperus difformis", "details": "250 g ai/ha, applied to paddy water, visual rating after 13 to 14 days, scale 0 to 100 (0 no effect, 100 complete control)", "procedure,_shortened": "as §2"}, "corn [11]": {"test_system": "corn", "experiment": "Test C preemergence", "format": "in vivo, Zea mays", "details": "0 to 100 scale (0 no effect, 100 complete control)", "procedure,_shortened": "as §1"}, "soybean [12]": {"test_system": "soybean", "experiment": "Test C postemergence", "format": "in vivo, Glycine max", "details": "10 days", "procedure,_shortened": "as §1"}, "ragweed [13]": {"test_system": "ragweed", "experiment": "Test C preemergence", "format": "in vivo, Ambrosia artemisiifolia", "details": "0 to 100 scale (0 no effect, 100 complete control)", "procedure,_shortened": "as §1"}, "kochia [14]": {"test_system": "kochia", "experiment": "Test C postemergence", "format": "in vivo, Bassia scoparia", "details": "10 days", "procedure,_shortened": "as §1"}, "kochia [15]": {"test_system": "kochia", "experiment": "Test C preemergence", "format": "in vivo, Bassia scoparia", "details": "0 to 100 scale (0 no effect, 100 complete control)", "procedure,_shortened": "as §1"}, "horseweed": {"test_system": "horseweed", "experiment": "Test C postemergence", "format": "in vivo, Erigeron canadensis", "details": "10 days", "procedure,_shortened": "as §1"}, "soybean [16]": {"test_system": "soybean", "experiment": "Test C preemergence", "format": "in vivo, Glycine max", "details": "0 to 100 scale (0 no effect, 100 complete control)", "procedure,_shortened": "as §1"}, "rice": {"test_system": "rice", "experiment": "Test D flooded paddy test", "format": "in vivo, Oryza sativa", "details": "250 g ai/ha, applied to paddy water, visual rating after 13 to 14 days, scale 0 to 100 (0 no effect, 100 complete control)", "procedure,_shortened": "as §2"}, "wheat [17]": {"test_system": "wheat", "experiment": "Test C preemergence", "format": "in vivo, Triticum aestivum", "details": "0 to 100 scale (0 no effect, 100 complete control)", "procedure,_shortened": "as §1"}, "oat, wild [18]": {"test_system": "oat, wild", "experiment": "Test C preemergence", "format": "in vivo, Avena fatua", "details": "0 to 100 scale (0 no effect, 100 complete control)", "procedure,_shortened": "as §1"}, "green foxtail [19]": {"test_system": "green foxtail", "experiment": "Test C preemergence", "format": "in vivo, Setaria viridis", "details": "0 to 100 scale (0 no effect, 100 complete control)", "procedure,_shortened": "as §1"}, "barnyardgrass [20]": {"test_system": "barnyardgrass", "experiment": "Test C postemergence", "format": "in vivo, Echinochloa crusgalli", "details": "10 days", "procedure,_shortened": "as §1"}, "ryegrass, Italian [21]": {"test_system": "ryegrass, Italian", "experiment": "Test C postemergence", "format": "in vivo, Lolium multiflorum", "details": "10 days", "procedure,_shortened": "as §1"}, "barnyardgrass [22]": {"test_system": "barnyardgrass", "experiment": "Test D flooded paddy test", "format": "in vivo, Echinochloa crus-galli", "details": "250 g ai/ha, applied to paddy water, visual rating after 13 to 14 days, scale 0 to 100 (0 no effect, 100 complete control)", "procedure,_shortened": "as §2"}, "ragweed [23]": {"test_system": "ragweed", "experiment": "Test C postemergence", "format": "in vivo, Ambrosia artemisiifolia", "details": "10 days", "procedure,_shortened": "as §1"}, "[24]": {"details": "125 g ai/ha, postemergence, 0 to 100 scale, 0 no effect, 100 complete control"}, "[25]": {"details": "Postemergence, 500 g ai/ha, visual 0 to 100 scale (0 no effect, 100 complete control)"}, "[26]": {"details": "125 g ai/ha, postemergence, 0 to 100 scale (0 no effect, 100 complete control)"}, "[27]": {"details": "Preemergence, 500 g ai/ha, visual rating after 10 days"}, "[28]": {"details": "Test C, preemergence, 125 g ai/ha"}},
  "data": [
    {"compound": "CC(C)c1ncn(-c2cc3c(c(C(=O)N4C[C@H](C)Oc5c(Cl)cccc54)c2)OCO3)n1", "note": "[Compound 258, [(2S)-8-chloro-2-methyl-2,3-dihydro-1,4-benzoxazin-4-yl]-[6-(3-isopropyl-1,2,4-triazol-1-yl)-1,3-benzodioxol-4-yl]methanone]", "values": [
      {"measurement": "Plant response rating, Foxtail, Green", "setting": "green foxtail [1]; [24]", "value": 50},
      {"measurement": "Plant response rating, Foxtail, Green", "setting": "green foxtail [1]; [25]", "value": 90},
      {"measurement": "Plant response rating, Wheat", "setting": "wheat [2]; [24]", "value": 20},
      {"measurement": "Plant response rating, Wheat", "setting": "wheat [2]; [25]", "value": 50},
      {"measurement": "Corn plant response rating (crop injury, 0 = no effect, 100 = complete kill) at 125 g/ha", "setting": "corn [3]; [26]", "value": 70, "unit": "%"},
      {"measurement": "Corn plant response rating (crop injury, 0 = no effect, 100 = complete kill) at 500 g/ha", "setting": "corn [3]; [25]", "value": 80, "unit": "%"},
      {"measurement": "Plant response rating, Pigweed, Palmer", "setting": "pigweed, palmer [4]; [27]", "value": 100},
      {"measurement": "Pigweed, Palmer plant response rating", "setting": "pigweed, palmer [4]; [28]", "value": 100},
      {"measurement": "Plant response rating, Barnyardgrass", "setting": "barnyardgrass [5]; [27]", "value": 100},
      {"measurement": "Barnyardgrass plant response rating", "setting": "barnyardgrass [5]; [28]", "value": 80},
      {"measurement": "Plant response rating, Ryegrass, Italian", "setting": "ryegrass, Italian [6]; [27]", "value": 100},
      {"measurement": "Ryegrass, Italian plant response rating", "setting": "ryegrass, Italian [6]; [28]", "value": 90},
      {"measurement": "Plant response rating, Ducksalad (Flood)", "setting": "ducksalad", "value": 98},
      {"measurement": "Plant response rating, Blackgrass", "setting": "blackgrass [7]; [27]", "value": 60},
      {"measurement": "Blackgrass plant response rating", "setting": "blackgrass [7]; [28]", "value": 40},
      {"measurement": "Plant response rating, Oat, Wild", "setting": "oat, wild [8]; [24]", "value": 30},
      {"measurement": "Plant response rating, Oat, Wild", "setting": "oat, wild [8]; [25]", "value": 90},
      {"measurement": "Plant response rating, Pigweed, Palmer", "setting": "pigweed, palmer [9]; [24]", "value": 100},
      {"measurement": "Plant response rating, Pigweed, Palmer", "setting": "pigweed, palmer [9]; [25]", "value": 100},
      {"measurement": "pest or weed control at 125 g/ha", "setting": "blackgrass [10]; [26]", "value": 50, "unit": "%"},
      {"measurement": "pest or weed control at 500 g/ha", "setting": "blackgrass [10]; [25]", "value": 100, "unit": "%"},
      {"measurement": "Plant response rating, Galium", "setting": "galium; [24]", "value": 100},
      {"measurement": "Plant response rating, Galium", "setting": "galium; [25]", "value": 100},
      {"measurement": "Plant response rating, Sedge, Umbrella (Flood)", "setting": "sedge, umbrella", "value": 98},
      {"measurement": "Plant response rating, Corn", "setting": "corn [11]; [27]", "value": 20},
      {"measurement": "Corn plant response rating", "setting": "corn [11]; [28]", "value": 10},
      {"measurement": "Plant response rating, Soybean", "setting": "soybean [12]; [24]", "value": 100},
      {"measurement": "Plant response rating, Soybean", "setting": "soybean [12]; [25]", "value": 100},
      {"measurement": "Plant response rating, Ragweed", "setting": "ragweed [13]; [27]", "value": 50},
      {"measurement": "Ragweed plant response rating", "setting": "ragweed [13]; [28]", "value": 40},
      {"measurement": "Plant response rating, Kochia", "setting": "kochia [14]; [24]", "value": 70},
      {"measurement": "Plant response rating, Kochia", "setting": "kochia [14]; [25]", "value": 100},
      {"measurement": "Plant response rating, Kochia", "setting": "kochia [15]; [27]", "value": 100},
      {"measurement": "Kochia plant response rating", "setting": "kochia [15]; [28]", "value": 90},
      {"measurement": "Plant response rating, Horseweed", "setting": "horseweed; [24]", "value": 70},
      {"measurement": "Plant response rating, Horseweed", "setting": "horseweed; [25]", "value": 90},
      {"measurement": "Plant response rating, Soybean", "setting": "soybean [16]; [27]", "value": 100},
      {"measurement": "Soybean plant response rating", "setting": "soybean [16]; [28]", "value": 50},
      {"measurement": "Plant response rating, Rice (Flood)", "setting": "rice", "value": 10},
      {"measurement": "Plant response rating, Wheat", "setting": "wheat [17]; [27]", "value": 60},
      {"measurement": "Wheat plant response rating", "setting": "wheat [17]; [28]", "value": 50},
      {"measurement": "Plant response rating, Oat, Wild", "setting": "oat, wild [18]; [27]", "value": 90},
      {"measurement": "Oat, Wild plant response rating", "setting": "oat, wild [18]; [28]", "value": 40},
      {"measurement": "Plant response rating, Foxtail, Green", "setting": "green foxtail [19]; [27]", "value": 100},
      {"measurement": "Foxtail, Green plant response rating", "setting": "green foxtail [19]; [28]", "value": 100},
      {"measurement": "Plant response rating, Barnyardgrass", "setting": "barnyardgrass [20]; [24]", "value": 40},
      {"measurement": "Plant response rating, Barnyardgrass", "setting": "barnyardgrass [20]; [25]", "value": 90},
      {"measurement": "Plant response rating, Ryegrass, Italian", "setting": "ryegrass, Italian [21]; [24]", "value": 50},
      {"measurement": "Plant response rating, Ryegrass, Italian", "setting": "ryegrass, Italian [21]; [25]", "value": 80},
      {"measurement": "Plant response rating, Barnyardgrass (Flood)", "setting": "barnyardgrass [22]", "value": 35},
      {"measurement": "Plant response rating, Ragweed", "setting": "ragweed [23]; [24]", "value": 70},
      {"measurement": "Plant response rating, Ragweed", "setting": "ragweed [23]; [25]", "value": 90}
    ]}
  ]
}
